This passage reports EC50, IC50 and outcome results from PubChem BioAssay AID179 (DTP/NCI, 2004).

The structures appear in SMILES notation. The source made the active and inactive calls.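 The calls were made as follows: active = compounds giving half or more protection of infected cells from virus-caused growth loss, again on retest; inactive = the rest.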

This assay deals with CEM cells HIV-1 protection, formazan growth assay. Nature of the assay: NCI AIDS Antiviral Assay. The following applies: for IC50: measured here: growth of uninfected CEM cells. The essentials:
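Category rules: moderately active means at least 50% protection on retest, and confirmed active means 100% protection reproducibly. The underlying data came from a formazan growth assay in HIV-1-infected CEM cells.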

As to `O=C1/C(=C\c2cccc(Oc3ccccc3)c2)SC(c2ccccc2)N1c1cccc([N+](=O)[O-])c1` (stereo not drawn), the EC50 was greater than 200 µM and the IC50 is 39.8 µM.

As for `CC1(C)C(=O)c2ccccc2OC1N1CCN(C2Oc3ccccc3C(=O)C2(C)C)CC1` (stereo not drawn), the outcome was inactive.

Take `[O-][N+]1=C2CCC/C(=N/O)C2(O)C2CCCCC21N1CCOCC1` (stereo not drawn): the EC50 is greater than 200 µM and the IC50 was greater than 200 µM.

On to `CC1(C)CN(CCC#N)C(c2ccc([N+](=O)[O-])cc2)O1` (stereo not drawn), for which the EC50 is greater than 200 µM and the IC50 is 102 µM.

As to `CC(=O)N1C(OC(C)C)CC(C)N1c1ccccc1` (stereo not drawn), the EC50 was greater than 200 µM and the IC50 was greater than 200 µM.

Consider `O=C1c2c(O)ccc(O)c2C(=O)c2c(NCCCO)ccc(NCCCO)c21`, for which the EC50 was 13.5 µM and the IC50 was found to be 18.6 µM.

With `Cc1cc(=NCCCN(C)C)c2ccc3c(ccc4c(=NCCCN(C)C)cc(C)n(O)c43)c2n1O`, the EC50 was greater than 200 µM and the IC50 turned out to be 10.2 µM.

For `Cc1cccc(NC(=O)CC(=O)N2N=C(N3c4ccccc4Sc4ccccc43)CC2c2ccccc2)c1` (stereo not drawn), the EC50 is greater than 151 µM and the IC50 is greater than 151 µM.

Take `COc1cc(Br)c(CCC#N)cc1OC`: the EC50 is greater than 347 µM and the IC50 was 37.2 µM.

On to `O=C1NN(C2=NNC3(C(=O)N2)c2ccccc2-c2ccccc23)C(c2ccccc2)=N/C1=C/c1ccc(Cl)cc1`, for which the EC50 is greater than 100 µM and the IC50 is 70.8 µM.

Take `O=C1OC2CSCC2O1` (stereo not drawn): the EC50 is greater than 1700 µM and the IC50 was greater than 1700 µM.

Turning to `CC(C)C(OC(=O)c1cc(NC(=S)c2cccn2C)ccc1Cl)C(C)C`, the EC50 was 0.234 µM and the IC50 is 18.2 µM.

Take `N/C(Cc1ccc(Cl)cc1)=N/O`: the EC50 is greater than 200 µM and the IC50 was greater than 200 µM.

For `Nc1nc2c(c(=O)[nH]1)C(c1ccc(Cl)cc1)C=C(c1ccccc1)N2` (stereo not drawn), the EC50 was greater than 200 µM and the IC50 worked out at 14.1 µM.

Turning to `O=[N+]([O-])c1cc(Cl)ccc1Sc1ccccc1`, the outcome was inactive.

With `Oc1ccccc1-c1nc2sc(-c3ccccc3O)nc2s1`, the EC50 was greater than 200 µM and the concentration for half-maximal inhibition (IC50) came to 132 µM.

For the molecule `CC(=O)CC(=O)ON(C)C(=O)Cc1ccccc1`, the EC50 is greater than 1000 µM and the IC50 is greater than 1000 µM.

As for `O=CNc1cccc2c(=O)[nH][nH]c(=O)c12`, the EC50 is greater than 126 µM and the IC50 is greater than 126 µM.

Regarding `c1ccc(N2N=NC3C4CC(C5c6ccccc6C45)C32)cc1` (stereo not drawn), the outcome was inactive.

Take `Cc1cn(C2CC(NO)C(CO)O2)c(=O)[nH]c1=O` (stereo not drawn): the EC50 was 38.9 µM and the IC50 came to 178 µM.

With `COC(=S)C12CC3CC(CC(C3)C1)C2`, the outcome was inactive.

For the molecule `CC(=O)OC1CCC2(C)C(C1)CC(OC(C)=O)C1C2CC(OC(C)=O)C2(C)C(C(C)CC(=O)C(=O)c3ccccc3)CCC12` (stereo not drawn), the EC50 was greater than 6.17 µM and the IC50 came to 2.63 µM.

Consider `CS(=O)CCN=Cc1ccc(N=Nc2ccc(O)cc2)cc1` (stereo not drawn), for which the EC50 is greater than 200 µM and the IC50 was 1.78 µM.

Take `O=C(O)c1c(O)c2cc([N+](=O)[O-])ccc2oc1=O`: the EC50 was greater than 324 µM and the 50% inhibitory concentration (IC50) is greater than 324 µM.

As to `CC(C)CCCC(C)C1CCC2C3CC[C@H]4C[C@H](NC(=O)C=C(c5cc(Cl)c(O)c(C(=O)O)c5)c5cc(Cl)c(O)c(C(=O)O)c5)CC[C@]4(C)C3CC[C@]12C` (stereo partly drawn), the EC50 is greater than 100 µM and the IC50 worked out at 26.3 µM.

As to `Nc1ccn(CCOC(=O)c2ccccc2)c(=O)n1`, the EC50 is greater than 52.5 µM and the IC50 was greater than 52.5 µM.

Turning to `Cn1c2c(c3ccccc31)CCN(CCN1CCN(c3ccccc3)CC1)C2=O`, the result was inactive.

In the case of `CC(=O)c1ccc(N=NN2CCCC2)cc1`, the EC50 is greater than 200 µM and the IC50 amounted to 89.1 µM.

For the molecule `CCC1(OC(=O)CN2CCN(CCO)CC2)C(=O)OCc2c1cc1n(c2=O)Cc2cc3ccccc3nc2-1` (stereo not drawn), the EC50 is greater than 10 µM and the IC50 was determined as 0.0912 µM.

For the molecule `CN(C)CCCNC(=O)c1cc(NC(=O)c2cc(NC(=O)c3cc(NC(=O)c4ccccc4C(=O)O)cn3C)cn2C)cn1C`, the EC50 was greater than 200 µM and the IC50 is greater than 200 µM.

With `COc1cc(OC)c(/C=N/N=C(\N)NO)c(OC)c1`, the EC50 is greater than 200 µM and the IC50 was greater than 200 µM.

On to `N#CCc1nc2ccccc2c(=O)[nH]1`, for which the EC50 is 17.8 µM and the IC50 stood at 69.2 µM.

With `COc1ccc(CNC(=O)NCn2cc(-c3ccccc3)nn2)cc1`, the EC50 was greater than 200 µM and the IC50 was greater than 200 µM.

As to `CN(C)c1ccc(N=C2N=C(Nc3ccccc3)C(=Nc3ccccc3)S2)cc1`, the EC50 is greater than 100 µM and the IC50 was determined as 72.4 µM.

`CCCCC1C(=O)N2C=C(c3ccccc3)c3ccccc3N2C1=O` (stereo not drawn): the EC50 was greater than 100 µM and the IC50 came to 60.3 µM.

Consider `N#CC12C(=O)NC(=O)C1(C#N)C2c1ccccc1` (stereo not drawn), for which the EC50 was greater than 501 µM and the IC50 was greater than 501 µM.

Turning to `CC(C)(C)c1cc(S(=O)(=O)O)c2oc(-c3ccccc3)cc(=O)c2c1`, the EC50 is greater than 200 µM and the IC50 is greater than 200 µM.

On to `Cc1[nH]c2c(C)cccc2c1C1Cc2ccccc2N1` (stereo not drawn), for which the outcome was inactive.

Take `Cc1cccc(CC(C)(C)C)c1NC(=O)C(=O)C(C(=O)c1ccc2ccccc2c1)C1OC(=O)c2ccccc21` (stereo not drawn): the EC50 was greater than 126 µM and the half-inhibitory concentration (IC50) is 56.2 µM.

Regarding `O=C(CC1(O)C(=O)Nc2c(Cl)ccc(Cl)c21)c1ccc(Cl)cc1Cl` (stereo not drawn), the EC50 is greater than 12.9 µM and the IC50 was greater than 12.9 µM.

In the case of `COc1ccc2c(c1)C(=O)N1CCOC1C2C(=O)O` (stereo not drawn), the EC50 was greater than 955 µM and the 50% inhibitory concentration (IC50) was greater than 955 µM.

As to `COc1cccc2c(NCCC[N+](C)(C)[O-])c3c([N+](=O)[O-])ccc(OC)c3nc12`, the EC50 was greater than 200 µM and the IC50 worked out at 1.32 µM.

Consider `CCNC(=O)OCc1cnc(C)c(O)c1COC(=O)NCC`, for which the EC50 is greater than 200 µM and the IC50 is greater than 200 µM.

For the molecule `CN1C(=S)N2CCCCCCCC2C(C#N)=C1N` (stereo not drawn), the EC50 is greater than 200 µM and the IC50 is greater than 200 µM.

For the molecule `CC[C@@]12CCC(=O)N3CCC4(C(=C(C(=O)OC)C1)Nc1ccccc14)[C@H]32` (stereo partly drawn), the EC50 was greater than 269 µM and the IC50 is 15.5 µM.

On to `COc1cc(NCC2COc3c(ccc(OC)c3OC)C2=O)c([N+](=O)[O-])cc1OC` (stereo not drawn), for which the EC50 is greater than 200 µM and the IC50 was 186 µM.

On to `COc1ccc(/C=C/C(=O)c2sc(Nc3ccc([N+](=O)[O-])cc3)nc2C)cc1`, for which the EC50 is greater than 47.9 µM and the IC50 came out at 39.8 µM.

On to `COc1ccc(C2CC(c3ccccc3)=Nc3ccccc3S2)cc1OC` (stereo not drawn), for which the EC50 is greater than 39.8 µM and the IC50 was 8.51 µM.

For the molecule `CCOC(=O)C(NC(=O)CC)(N1CCN(c2cc3c(cc2F)c(=O)c(C(=O)O)cn3C2CC2)CC1)C(F)(F)F` (stereo not drawn), the EC50 was greater than 200 µM and the IC50 turned out to be 126 µM.

As for `CC(=O)Nc1ccc(S(=O)(=O)/N=C(/C2CCCC2)N2CCCC2)cc1`, the EC50 was greater than 200 µM and the concentration for half-maximal inhibition (IC50) was greater than 200 µM.

For the molecule `CC1(C)C2CC(O)C1(C)CC2=O` (stereo not drawn), the EC50 was greater than 200 µM and the IC50 came out at 170 µM.

As to `COc1nc2c(c(=O)[nH]1)N=C(c1ccccc1)CC(c1ccccc1)N2` (stereo not drawn), the EC50 was greater than 200 µM and the IC50 is greater than 200 µM.

Regarding `O=S(=O)(O)c1cc(N=Nc2ccc(S(=O)(=O)c3ccc(N=Nc4cc(S(=O)(=O)O)c5cccnc5c4O)cc3)cc2)c(O)c2ncccc12`, the EC50 was 6.03 µM and the IC50 was found to be 39.8 µM.

In the case of `CC(Cl)CN1COc2c3c(c4ccccc4c2C1)CN(CC(C)Cl)CO3` (stereo not drawn), the EC50 is greater than 91.2 µM and the IC50 turned out to be 27.5 µM.

Take `CSC(SC)=C1CC(=O)Nc2ccccc2C1=O`: the EC50 was greater than 200 µM and the IC50 was determined as 58.9 µM.

Turning to `CC(C)(Sc1cc(C(C)(C)C)c(O)c(C(C)(C)C)c1)Sc1cc(C(C)(C)C)c(O)c(C(C)(C)C)c1`, the EC50 was greater than 26.3 µM and the IC50 was greater than 26.3 µM.

In the case of `O=C(N/N=C/c1ccccn1)c1ccccc1[O-].O=C(N/N=C/c1ccccn1)c1ccccc1[O-].[Mn+2]`, the EC50 is greater than 200 µM and the IC50 worked out at 11.2 µM.

`SCc1ccc(-c2ccc(CS)cc2)cc1`: the EC50 is greater than 4.27 µM and the IC50 was greater than 4.27 µM.

Turning to `CC(C)CC1C(=O)NCCC(NC(=O)C(Cc2ccc(OC(C)(C)C)cc2)NC(=O)OC(C)(C)C)C(=O)NC(Cc2ccccc2)C(=O)NC(Cc2ccccc2)NC1=O` (stereo not drawn), the EC50 was greater than 63.1 µM and the IC50 stood at 7.24 µM.

On to `CCCCCC=C(c1cc(Br)c(O)c(C(=O)O)c1)c1cc(Br)c(O)c(C(=O)O)c1`, for which the EC50 was greater than 813 µM and the IC50 was 151 µM.

Turning to `COc1cc2c(cc1OC)C13CCN4CC5=CCOC6CC(=O)N2C1C6C5CC43` (stereo not drawn) (tested in a mixture with another compound), the EC50 is greater than 200 µM and the IC50 came to 53.7 µM.

In the case of `Nc1[nH]c(=S)c2c(N)n[nH]c2c1C(=O)Nc1ccc(Cl)cc1`, the EC50 is greater than 200 µM and the IC50 worked out at 1.55 µM.

For `CCOC(=O)C1Nc2ccc([N+](=O)[O-])cc2[C@H]2OCC[C@@H]12` (stereo partly drawn), the EC50 is greater than 447 µM and the IC50 is greater than 447 µM.

As for `CCOC(=O)c1cn(C)c2c1C(=O)C(C(=O)OCC)CC(=O)N2` (stereo not drawn), the EC50 was greater than 288 µM and the IC50 came out at 178 µM.

In the case of `CC(=O)N1N=C(c2ccccc2Nc2ccccc2C2=NN(C(C)=O)C(c3ccccc3)O2)OC1c1ccccc1` (stereo not drawn), the EC50 is greater than 200 µM and the IC50 came to 6.17 µM.

With `CCC1=CCC23C(=O)C=CC(=O)C2(C1)C(=O)c1cccc(OC)c1C3=O` (stereo not drawn), the EC50 was greater than 20 µM and the IC50 was 1.05 µM.

Turning to `COc1ccc(NC(=S)NN=C(C)c2cccc(C(C)=NNC(=S)Nc3ccc(OC)cc3)n2)cc1`, the EC50 is greater than 200 µM and the IC50 stood at 55 µM.

`Cc1cc(NCCO)nc2c1ccc1ccccc12`: the EC50 was greater than 141 µM and the IC50 is 22.4 µM.

In the case of `c1ccc2c(c1)cc1n2CCc2c-1[nH]c1ccccc21`, the EC50 is greater than 200 µM and the IC50 was greater than 200 µM.

In the case of `C/C(Cc1ccccc1)=N\NC(N)=S`, the result was inactive.

Broadly, the EC50 is the concentration that produces a half-maximal response. By IC50 is commonly meant the concentration that inhibits the measured activity by half. High values mean a need for much substance, low ones inhibition by little substance.
